Test results: patent publication US10538561B2, “Peptide for treating inflammatory diseases” (priority 2015, dated 2020)

How the values were obtained:
[1] = test system: Human endothelial cells (EA.hy 926); test: Inhibition of FBS stimulated endothelial cell proliferation (MTT); format: cell-based; conditions: for Absorbance (Mean ± SD) at 540 nm: EA.hy926, 10% FBS, 72 h
Protocol: Cell line: Human endothelial cells (EA.hy 926); test item: IS 181: treatment regimen: multiple additions (3)-72 hours; concentration range: 1 6 g/ml to 5000 6 g/ml (triplicate wells); sera condition: medium containing 10% FBS. […] The cells were then subjected to complete serum starvation. The cells were retreated with 10% FBS to stimulate cellular proliferation. […] Inhibition of FBS stimulated cell proliferation was measured using MTT assay. End point: percentage inhibition of FBS stimulated cell proliferation. Positive controls: anthralin; paclitaxel.

PDGFRA (PDGFR alpha) = PDGFRA (PDGFR alpha) (Homo sapiens, UniProt P16234); test: Biochemical kinase assay PDGFRA; conditions: cell free, read-out: inhibition of PDGFRA (PDGRFR alpha)
Protocol: Test system: cell free assays; test items: IS181; concentrations tested: 1 ng/ml-5000 μg/ml; Kinases: a) Cell free assays: EGFR (ErbB1); FLT1 (VEGFR1); JAK1; JAK3 MAP2K1 (MEK1); PDGFRA (PDGFR alpha); PRKCA (PKC alpha); b) cell based assay: JAK-STAT.

[2] = Solution stability in diluents; format: physicochemical; conditions: 24 hours
Protocol: (§1) The solution stability of peptide IS 181 was performed in four different diluents at three different temperatures for 24 hours. Four different pre-formulations of concentration 10 mg/ml were prepared and formulation assay was performed at initial and […] at room temperature.

[3] = test system: Human Keratinocytes (HaCaT); test: TUNEL assay; format: cell-based; conditions: 48 h
Protocol: Cell lines: Human Keratinocytes (HaCaT); test item (TI): IS181; treatment regimen: treated twice (once after 24 hours)-48 hours; Concentration range: 100 6 g/ml-5000 6 g/ml. […] Cells were sera starved in 1% FBS for 24 hours. Cells were treated with IS181 for 24 hours. After 24 h, cells were again treated with IS181 for 24 hours. After 48 h of first treatment, cells were processed for TUNEL staining. Fold increase in apoptotic cells [TUNEL positive] was calculated with respect to untreated control cells. Positive control: Curcumin, Anthralin, Betullinic acid. […] No increase in TUNEL positive cells was observed from 100 μg/ml-2000 μg/ml.

IL-6 = test: LPS+PMA stimulated IL-6 secretion in HaCaT; format: cell-based, Human; conditions: 24 h
Protocol: Effect on pro-inflammatory cytokines against TNF-α/LPS+PMA stimulation: TNF-α; IFN-γ; TARC; TSLP; IL-6; IL-8: Cell lines: Human keratinocytes (HaCaT); test item (TI); IS181; experimental steps: pre-treatment of cells with TI for 2 hours; stimulation with TNF-α: 20 ng/ml; stimulation with LPS+PMA-10 μg/ml LPS+40 ng/ml PMA; supernatant collection for cytokine analysis after 24 hours; concentration range: 0.1 μg/ml-100 μg/ml (duplicate wells); cytokines: TNF-α; IFN-γ; TARC; TSLP; IL-6; IL-8. Method of estimating cytokines: ELISA; positive control: dexamethasone.
Cell line: HaCaT (Human Keratinocytes); TI Treatment regimen: Pretreatment for 2 h; TI Concentration range: 0.1 μg/ml-100 μg/ml (duplicate wells); TNF-α stimulation: 20 ng/ml; LPS+PMA stimulation: 10 μg/ml LPS+40 ng/ml PMA; Time point for supernatants collection: 24 h; Method of estimation: ELISA; Positive control: Dexamethasone

[4] = Maximum feasible concentration and formulation stability; format: physicochemical
Protocol: as §1

[5] = test system: Imiquimod (IMQ) induced psoriasis; test: Imiquimod (IMQ) induced psoriasis model; format: in vivo, BALB/C mice
Protocol: The Experiment was carried out in Imiquimod (IMQ) induced psoriasis model in mice. […] […] There was a trend in animals treated with IS-181 through s.c. in ear thickness (life phase), punch biopsy, spleen weight and histopathology. […] Thus, […] In the view of this, it may be worth to explore the potency of the peptide for the diseases where TNFα playing central role in pathogenesis.

[6] = 10% v/v Propylene glycol in 0.9% NaCl (for IM& SC)

PDGFRA (PDGFR alpha), sequence (P16234 24-1089): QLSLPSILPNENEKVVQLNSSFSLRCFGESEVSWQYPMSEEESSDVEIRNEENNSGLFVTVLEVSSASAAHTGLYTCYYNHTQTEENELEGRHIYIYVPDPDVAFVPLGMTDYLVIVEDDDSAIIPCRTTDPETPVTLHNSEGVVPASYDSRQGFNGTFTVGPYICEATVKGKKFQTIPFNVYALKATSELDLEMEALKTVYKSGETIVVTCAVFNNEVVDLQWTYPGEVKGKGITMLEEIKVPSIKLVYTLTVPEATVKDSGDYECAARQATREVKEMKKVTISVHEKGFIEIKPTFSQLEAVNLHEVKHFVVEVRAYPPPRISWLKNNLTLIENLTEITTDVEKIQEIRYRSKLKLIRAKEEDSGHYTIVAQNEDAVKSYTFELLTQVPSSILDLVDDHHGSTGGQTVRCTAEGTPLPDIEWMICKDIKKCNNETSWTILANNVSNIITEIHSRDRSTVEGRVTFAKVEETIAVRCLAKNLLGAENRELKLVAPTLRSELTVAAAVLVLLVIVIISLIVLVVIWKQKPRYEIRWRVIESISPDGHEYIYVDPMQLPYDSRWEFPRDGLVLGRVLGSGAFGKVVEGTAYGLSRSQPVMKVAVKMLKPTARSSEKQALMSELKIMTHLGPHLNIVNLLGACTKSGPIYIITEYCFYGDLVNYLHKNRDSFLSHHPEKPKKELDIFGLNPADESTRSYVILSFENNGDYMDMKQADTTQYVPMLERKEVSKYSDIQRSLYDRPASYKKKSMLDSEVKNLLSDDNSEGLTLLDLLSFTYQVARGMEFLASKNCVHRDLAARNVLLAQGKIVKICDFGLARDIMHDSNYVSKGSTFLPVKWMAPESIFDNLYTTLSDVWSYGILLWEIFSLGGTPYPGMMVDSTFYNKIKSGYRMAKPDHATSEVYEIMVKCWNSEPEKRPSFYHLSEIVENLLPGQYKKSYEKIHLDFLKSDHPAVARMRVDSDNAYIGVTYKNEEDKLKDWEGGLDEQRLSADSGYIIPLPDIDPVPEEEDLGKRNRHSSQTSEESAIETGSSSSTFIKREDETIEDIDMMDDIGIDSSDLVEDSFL

inhibition at 50 µg/mL (PDGFRA (PDGFR alpha); 50 μg/ml): 8%
inhibition at 100 µg/mL (PDGFRA (PDGFR alpha); 100 μg/ml): -10%
inhibition at 250 µg/mL (PDGFRA (PDGFR alpha); 250 μg/ml): -26%
inhibition at 500 µg/mL (PDGFRA (PDGFR alpha); 500 μg/ml): -49%
inhibition at 1000 µg/mL (PDGFRA (PDGFR alpha); 1000 μg/ml): -81%
inhibition at 2000 µg/mL (PDGFRA (PDGFR alpha); 2000 μg/ml): -147%
% Stability ([2]; 0.9% NaCl solution, 2-8° C.): 93.64%
% Stability ([2]; 0.9% NaCl solution, 37° C.): 104.94%
% Stability ([2]; 0.9% NaCl solution, Room Temperature): 101.84%
% Stability ([2]; Phosphate buffer pH 5.0, 2-8° C.): 96.53%
% Stability ([2]; Phosphate buffer pH 5.0, 37° C.): 104.05%
% Stability ([2]; Phosphate buffer pH 5.0, Room Temperature): 102.20%
% Stability ([2]; Phosphate buffer pH 7.4, 2-8° C.): 97.99%
% Stability ([2]; Phosphate buffer pH 7.4, 37° C.): 107.22%
% Stability ([2]; Phosphate buffer pH 7.4, Room Temperature): 102.41%
% Stability ([2]; Water, 2-8° C.): 94.66%
% Stability ([2]; Water, 37° C.): 98.57%
% Stability ([2]; Water, Room Temperature): 93.99%
MFC ([4]; 0.9% NaCl (for IV)): >25.0 mg/mL
Stability of formulation at RT ([4]; 0.9% NaCl (for IV)): Up to 24 hrs
MFC [4, 6]: >25.0 mg/mL
Stability of formulation at RT [4, 6]: Up to 24 hrs
Substance: H-WVQRVVEKFLK-OH [IS181, H-Trp-Val-Gln-Arg-Val-Val-Glu-Lys-Phe-Leu-Lys-OH]
inhibition of FBS stimulated cell proliferation ([1]; EA.hy926, 5 μg/ml to 1000 μg/ml): significant inhibition
cytotoxic effects ([1]; EA.hy926, 2000 μg/ml to 5000 μg/ml): cytotoxic effects
Absorbance (Mean ± SD) at 540 nm ([1]; 1 μg/ml): 0.48 ± 0.006
Absorbance (Mean ± SD) at 540 nm ([1]; 5 μg/ml): 0.45 ± 0.027
Absorbance (Mean ± SD) at 540 nm ([1]; 10 μg/ml): 0.46 ± 0.012
Absorbance (Mean ± SD) at 540 nm ([1]; 50 μg/ml): 0.41 ± 0.011
Absorbance (Mean ± SD) at 540 nm ([1]; 100 μg/ml): 0.41 ± 0.012
Absorbance (Mean ± SD) at 540 nm ([1]; 500 μg/ml): 0.33 ± 0.004
Absorbance (Mean ± SD) at 540 nm ([1]; 1000 μg/ml): 0.22 ± 0.008
Absorbance (Mean ± SD) at 540 nm ([1]; 2000 μg/ml): 0.09 ± 0.0003
increase in TUNEL positive cells ([3]; 100 μg/ml-2000 μg/ml): No increase
increase in apoptotic cells (TUNEL positive population) vs untreated ([3]; 5000 μg/ml): 28.3%
IL-6 % decrease with respect to LPS + PMA (IL-6; 0.1 μg/ml): −58.3%
IL-6 Conc (IL-6; 0.1 μg/ml): 23.7 pg/mL
IL-6 % decrease with respect to LPS + PMA (IL-6; 1 μg/ml): −78.5%
IL-6 Conc (IL-6; 1 μg/ml): 26.7 pg/mL
IL-6 % decrease with respect to LPS + PMA (IL-6; 5 μg/ml): −56.5%
IL-6 Conc (IL-6; 5 μg/ml): 23.4 pg/mL
IL-6 % decrease with respect to LPS + PMA (IL-6; 10 μg/ml): −48.0%
IL-6 Conc (IL-6; 10 μg/ml): 22.1 pg/mL
IL-6 % decrease with respect to LPS + PMA (IL-6; 100 μg/ml): −160.6%
IL-6 Conc (IL-6; 100 μg/ml): 39.0 pg/mL
histopathology ear thickness ([5]; 0.3 mg/kg, s.c.): maximum reduction in ear thickness
hyperkeratosis ([5]; 1.2 mg/kg i.m. and i.v.): reduction in hyperkeratosis
reduction in IL-23 (ear homogenate) compared to disease control ([5]; BALB/C mice, 0.3 mg/kg): 62.35%
reduction in TNFα (ear homogenate) compared to disease control ([5]; BALB/C mice, 0.3 mg/kg s.c.): 24.98%
reduction in TNFα (ear homogenate) compared to disease control ([5]; BALB/C mice, 1.2 mg/kg i.m.): 21.28%
dorsal skin thickness ([5]; across the groups except 0.6 mg/kg s.c. and 1.2 mg/kg i.m.): mild reduction in dorsal skin thickness, however which was not significant
punch biopsy weight ([5]; across the groups except 1.2 mg/kg, i.m.): mild reduction in punch biopsy weight, however which was not significant
IL-17A (ear homogenate) ([5]; across the treated groups): No changes in IL-17A
clinical score ([5]; across the treated groups): No substantial changes in clinical score
erythema index ([5]; across the treated groups): No changes in erythema index
ear thickness (life phase) compared to disease control ([5]; s.c.): mild reduction in ear thickness
edema compared to disease control ([5]; s.c. (1.2, 0.6 and 0.3 mg/kg)): reduction in edema
inflammatory cells infiltration compared to disease control ([5]; s.c. (1.2, 0.6 and 0.3 mg/kg) and 1.2 mg/kg i.v.): reduction in inflammatory cells infiltration
Rete peg proliferation ([5]; s.c. (at 1.2, 0.6 and 0.3, mg/kg)): reduction in Rete peg proliferation
spleen weight ([5]; s.c. route, 1.2 mg/kg): maximum reduction in spleen weight, however which was not significant
hyperkeratosis ([5]; s.c., 0.3 mg/kg): maximum effect
